In EP4741379A1, “CLASS OF PROGRAMMED CELL DEATH INHIBITORS, PREPARATION METHOD THEREFOR AND USE THEREOF” (SHANGHAI INSTITUTE OF ORGANIC CHEMISTRY, CHINESE ACADEMY OF …, priority 2023, dated 2025) one finds EC50 data, which are given here for 37 molecules.

Read-outs that look alike come from different tables or passages of the source.

In one test the test system is L929 cells. Briefly: TNF-induced programmed necrosis of L929 cells (Cell Titer-Glo viability). In kind it is cell-based, mouse. The conditions noted are these: Mus musculus. The method, then:
(§1) The biological test protocol is adopted to test effects of the compound on TNF-induced programmed necrosis of FADD (Fas-associated death domain)-deficient Jurkat cells and L929 cells.
(§2) Two different stimulation methods were used: treating with tumor necrosis factor (TNFα) alone, or treating with TNFα in combination of mitochondrial-derived cysteine-aspartate activator (SMAC) SM164. Cell viability was determined by measuring chemiluminescence values, thereby assessing the bioactivity of the compounds in inhibiting programmed cell necrosis.
(§3) Method: FADD-deficient Jurkat cells: FADD-deficient Jurkat cells (human peripheral blood leukemia T cell line) were cultured in vitro. After reaching logarithmic growth phase, cells were collected and centrifuged at 1000 rpm for 5 minutes. A supernatant was discarded. A cell concentration was adjusted to 2.5×10^5/mL, and cells were seeded into a 384-well plate at 40 µL per well. In the corresponding wells, 5 µL of SM164 (50 nM) and compounds diluted with cell culture medium were added. After pre-treatment at 37°C for 1 hour, 5 µL of TNFα (50 ng/mL) diluted with cell culture medium was added to each well as a stimulation group, while 5 µL of culture medium was added as a control group. After the plate was incubated in a cell culture incubator (37°C, 5% CO2) for 14 hours, 15 µL of Cell Titer-Glo solution was added to each well. Then, the plate was incubated at room temperature for 30 minutes. Luminescence was measured to assess intracellular ATP levels. Cell viability was set at 100% for unstimulated DMSO control wells. […] The plate was placed in a cell culture incubator (37°C, 5% CO2) and cultured for 12 hours. In the corresponding wells, 5 µL of SM164 (500 nM) and compounds diluted with cell culture medium were added. After pre-treatment at 37°C for 1 hour, 5 µL of TNFα (500 ng/mL) diluted with cell culture medium was added to the wells as a stimulation group, while 5 µL of culture medium was added as a control group. After the plate was incubated in the cell incubator (37°C, 5% CO2) for 14 hours, 15 µL of Cell Titer-Glo solution was added to each well. Then, the plate was incubated at room temperature for 30 minutes, and luminescence was measured to assess intracellular ATP levels. Cell viability was set at 100% for unstimulated DMSO control wells. EC50 values of the compounds were calculated using Prism GraphPad statistical software.
On the technique in general: In ATP-based viability assays light output follows the ATP content of the culture.

Test [1] has as its system FADD-deficient Jurkat cells. Description: TNF-induced programmed necrosis of FADD-deficient Jurkat cells (Cell Titer-Glo viability). In kind it is cell-based, human. The conditions noted are these: Homo sapiens, Jurkat. As for the experimental part: as §1, §2, §3
The mark [2] stands for this setting: L929, stimulation with TNFα + SM164, read-out: EC50 (nM) L929 cells (mouse-derived) TNFα+ SM164.
Setting [3] is: L929, stimulation with TNFα alone, read-out: EC50 (nM) L929 cells (mouse-derived) TNFα.
The mark [4] stands for this setting: stimulation with TNFα + SM164, read-out: EC50 (nM) FADD^-/- Jurkat cells (human-derived) TNFα+ SM164.
[5] abbreviates: stimulation with TNFα alone, read-out: EC50 (nM) FADD^-/- Jurkat cells (human-derived) TNFα.
[6] abbreviates: L929, read-out: EC50 (nM) L929 cells (mouse-derived) TNFα.
Where [7] appears, read: read-out: EC50 (nM) FADD^-/- Jurkat cells (human-derived) TNFα.

As to `CN1C(=O)[C@@H](NC(=O)c2n[nH]c(Cc3ccccc3)n2)COc2ccccc21` [GSK2982772, reference compound], the EC50 in the test on L929 cells (setting [2]) was more than 1000 nM; in the test with L929 cells (setting [3]), more than 1000 nM; in test [1] (setting [4]), 4 nM; in test [1] (setting [5]), 0.7 nM.

For the molecule `C[C@H](NC(=O)c1nnn(C)c1Cc1ccccc1)c1ccc(C#Cc2nccn2C)cc1` [IRCBC-002], the EC50 came out at 55.7 nM with L929 cells (setting [6]) and 0.392 nM in test [1] (setting [7]).

Consider `C[C@H](NC(=O)c1nnn(C)c1Cc1ccccc1)c1ccc(C#Cc2ccnn2C)cc1` [IRCBC-003], for which the EC50 stood at 1.11 nM with L929 cells (setting [6]) and 0.095 nM in test [1] (setting [7]).

Turning to `C[C@H](NC(=O)c1nnn(C)c1Cc1ccccc1)c1ccc(C#Cc2ccn(C)n2)cc1` [IRCBC-004], the EC50 in the test with L929 cells (setting [6]) was 0.558 nM; in test [1] (setting [7]), 0.019 nM.

As to `C[C@H](NC(=O)c1nnn(C)c1Cc1ccccc1)c1ccc(C#Cc2cnc[nH]2)cc1` [IRCBC-005], the EC50 came out at 3.42 nM in the test with L929 cells (setting [2]), 2.09 nM in the test with L929 cells (setting [3]), 1.12 nM in test [1] (setting [4]) and 0.019 nM in test [1] (setting [5]).

As for `C[C@H](NC(=O)c1nnn(C)c1Cc1ccccc1)c1ccc(C#Cc2ncc[nH]2)cc1` [IRCBC-006], the results for the EC50 (with L929 cells (setting [6]); in test [1] (setting [7])) were 81.9 nM and 2.03 nM, respectively.

For the molecule `C[C@H](NC(=O)c1nnn(C)c1Cc1ccccc1)c1ccc(C#Cc2nccs2)cc1` [IRCBC-007], the EC50 in the test with L929 cells (setting [6]) came out at 0.631 nM; in test [1] (setting [7]), 0.072 nM.

Regarding `C[C@H](NC(=O)c1nnn(C)c1Cc1ccccc1)c1ccc(C#Cc2ncco2)cc1` [IRCBC-008], the EC50 in the test on L929 cells (setting [6]) amounted to 1.86 nM; in test [1] (setting [7]) it was 0.055 nM.

Regarding `C[C@H](NC(=O)c1nnn(C)c1Cc1ccccc1)c1ccc(C#CC2CCOC2)cc1` (some centres unmarked) [IRCBC-010], the EC50 in the test with L929 cells (setting [2]) came to 6.71 nM; in the test with L929 cells (setting [3]), 3.27 nM; in test [1] (setting [4]) it was 13.4 nM; in test [1] (setting [5]), 0.481 nM.

In the case of `C[C@H](NC(=O)c1nnn(C)c1Cc1cccc(Cl)c1)c1ccc(C#Cc2ccccn2)cc1` [IRCBC-016], the EC50 in the test on L929 cells (setting [6]) was 5.85 nM; in test [1] (setting [7]), 1.69 nM.

For `C[C@H](NC(=O)c1cnn(C)c1Cc1cc(F)cc(F)c1)c1ccc(C#Cc2ccccn2)cc1` [IRCBC-033], the EC50 came to 4.11 nM with L929 cells (setting [2]), 0.771 nM in the test with L929 cells (setting [3]), 1.57 nM in test [1] (setting [4]) and 0.066 nM in test [1] (setting [5]).

Regarding `COC(C)(C)C#Cc1ccc([C@H](C)NC(=O)c2nnn(C)c2Cc2ccccc2)cc1` [IRCBC-036], the EC50 in the test with L929 cells (setting [6]) is 13.1 nM; in test [1] (setting [7]), 0.222 nM.

For `C[C@H](NC(=O)c1nnn(C)c1Cc1ccccc1)c1ccc(C#Cc2cnn(C3CC3)c2)cc1` [IRCBC-041], the values for the EC50 (with L929 cells (setting [6]); in test [1] (setting [7])) were 0.771 nM and 0.004 nM, respectively.

For the molecule `C[C@H](NC(=O)c1nnn(C)c1Cc1ccccc1)c1ccc(N2CCN(C)C(=O)C2)cc1` [IRCBC-043], the EC50 was more than 1000 nM with L929 cells (L929, stimulation with TNFα + SM164, µM, read-out: EC50 L929 cells (mouse-derived) TNFα+ SM164); more than 1000 nM in the test on L929 cells (L929, stimulation with TNFα alone, µM, read-out: EC50 L929 cells (mouse-derived) TNFα); 5.11 nM in test [1] (setting [4]); 0.683 nM in test [1] (setting [5]).

Regarding `C[C@H](NC(=O)c1nnn(C)c1Cc1ccccc1)c1ccc(C#Cc2ncccn2)cc1` [IRCBC-046], the EC50 amounted to 0.43 nM in the test on L929 cells (setting [2]), 0.203 nM with L929 cells (setting [3]), 0.087 nM in test [1] (setting [4]) and 0.001 nM in test [1] (setting [5]).

As for `C[C@H](NC(=O)c1nnn(C)c1Cc1ccccc1)c1ccc(C#Cc2cnccn2)cc1` [IRCBC-048], the EC50 is 2.93 nM in the test with L929 cells (setting [6]) and 0.018 nM in test [1] (setting [7]).

`C[C@H](NC(=O)c1nnn(C)c1Cc1ccccc1)c1ccc(C#Cc2ccc(F)cn2)cc1` [IRCBC-049]: the EC50 in the test on L929 cells (setting [6]) is 0.118 nM; in test [1] (setting [7]), 0.002 nM.

Regarding `C[C@H](NC(=O)c1nnn(C)c1Cc1ccccc1)c1ccc(C#Cc2ccc(Cl)cn2)cc1` [IRCBC-050], the values for the EC50 (in the test with L929 cells (setting [6]); in test [1] (setting [7])) were 0.105 nM and 0.001 nM, respectively.

As to `C[C@H](NC(=O)c1nnn(C)c1Cc1ccccc1)c1ccc(C#Cc2ccc(C#N)cn2)cc1` [IRCBC-051], the EC50 is 4.53 nM in the test on L929 cells (setting [2]), 1.62 nM in the test on L929 cells (setting [3]), 0.845 nM in test [1] (setting [4]) and 0.006 nM in test [1] (setting [5]).

As to `COc1ccc(C#Cc2ccc([C@H](C)NC(=O)c3nnn(C)c3Cc3ccccc3)cc2)nc1` [IRCBC-052], the EC50 was 0.068 nM with L929 cells (setting [6]) and 0.001 nM in test [1] (setting [7]).

For `C[C@H](NC(=O)c1nnn(C)c1Cc1ccccc1)c1ccc(C#Cc2ccc(N(C)C)cn2)cc1` [IRCBC-053], the results for the EC50 (in the test with L929 cells (setting [2]); in the test with L929 cells (setting [3]); in test [1] (setting [4])) were 0.011 nM, 0.004 nM and 0.001 nM, respectively.

Consider `C[C@H](NC(=O)c1nnn(C)c1Cc1ccccc1)c1ccc(C#Cc2ccncc2F)cc1` [IRCBC-054], for which the EC50 with L929 cells (setting [6]) came to 0.103 nM; in test [1] (setting [7]) it was 0.001 nM.

In the case of `Cn1nnc(C(=O)NCc2ccc(C#Cc3ccccn3)nc2)c1Cc1ccccc1` [IRCBC-057], the EC50 in the test with L929 cells (setting [2]) was found to be 35.5 nM; in the test on L929 cells (setting [3]) it was 12.6 nM; in test [1] (setting [4]) it was 3.9 nM; in test [1] (setting [5]) it was 0.537 nM.

Regarding `Cn1nnc(C(=O)NCc2ccc(C#Cc3ccccn3)c(F)c2)c1Cc1ccccc1` [IRCBC-058], the EC50 in the test on L929 cells (setting [2]) amounted to 35.2 nM; in the test with L929 cells (setting [3]), 1.5 nM; in test [1] (setting [4]), 1.25 nM; in test [1] (setting [5]) it was 0.018 nM.

Consider `C[C@H](NC(=O)c1nnn(C)c1Cc1ccccc1)c1ccc(C#Cc2ncc(N(C)C)cn2)cc1` [IRCBC-097], for which the results for the EC50 with L929 cells (setting [2]) and in the test with L929 cells (setting [3]) were 0.003 nM and 0.001 nM, respectively.

In the case of `CNc1ccc(C#Cc2ccc([C@H](C)NC(=O)c3nnn(C)c3Cc3ccccc3)cc2)nc1` [IRCBC-102], the EC50 in the test on L929 cells (setting [2]) was 0.018 nM; in the test with L929 cells (setting [3]) it was 0.01 nM.

Consider `C[C@H](NC(=O)c1nnn(C)c1Cc1ccccc1)c1ccc(C#Cc2ccc(N3CCOCC3)cn2)cc1` [IRCBC-105], for which the figures for the EC50 in the test with L929 cells (setting [2]) and with L929 cells (setting [3]) were 0.004 nM and 0.008 nM, respectively.

As for `C[C@H](NC(=O)c1nnn(C)c1Cc1ccccc1)c1ccc(C#Cc2ncc3nc[nH]c3n2)cc1` [IRCBC-129], the values for the EC50 in the test on L929 cells (setting [2]) and with L929 cells (setting [3]) were 0.196 nM and 0.06 nM, respectively.

With `CC(C)Nc1ccc(C#Cc2ccc([C@H](C)NC(=O)c3nnn(C)c3Cc3ccccc3)cc2)nc1` [IRCBC-146], the EC50 with L929 cells (setting [2]) worked out at 0.0014 nM.

As to `[2H]C([2H])([2H])Nc1ccc(C#Cc2ccc([C@H](C)NC(=O)c3nnn(C)c3Cc3ccccc3)cc2)nc1` [IRCBC-150], the EC50 with L929 cells (setting [2]) and with L929 cells (setting [3]) was 0.001 nM each time.

With `C[C@H](NC(=O)c1nnn(C)c1Cc1ccccc1)c1ccc(C#Cc2ncc(N3CCOCC3)cc2C#N)cc1` [IRCBC-154], in the test with L929 cells (setting [2]), the EC50 stood at 0.002 nM.

As to `CNc1cnc(C#Cc2ccc([C@H](C)NC(=O)c3nnn(C)c3Cc3ccccc3)cc2)nc1` [IRCBC-160], the EC50 in the test with L929 cells (setting [2]) came to 0.00234 nM.

As for `C[C@H](NC(=O)c1nnn(C)c1Cc1ccccc1)c1ccc(C#Cc2ncc(N)cn2)cc1` [IRCBC-161], the EC50 in the test on L929 cells (setting [2]) and in the test with L929 cells (setting [3]) was 0.002 nM in each case.

As to `[2H]C([2H])([2H])Nc1cnc(C#Cc2ccc([C@H](C)NC(=O)c3nnn(C)c3Cc3ccccc3)cc2)nc1` [IRCBC-256], the EC50 with L929 cells (setting [2]) came to 0.00121 nM.

Take `[2H]C([2H])([2H])Nc1cnc(C#Cc2ccc([C@H](C)NC(=O)c3nnn(C)c3Cc3ccccc3)cc2)c(C#N)c1` [IRCBC-257]: the EC50 in the test with L929 cells (setting [2]) worked out at 0.00117 nM.

Regarding `C[C@H](NC(=O)c1nnn(C)c1Cc1ccccc1)c1ccc(C#Cc2ncc(N3CC(N(C)C)C3)cn2)cc1` [IRCBC-259], the EC50 with L929 cells (setting [2]) was found to be 0.001 nM.

As for `CC(C)Nc1cnc(C#Cc2ccc([C@H](C)NC(=O)c3nnn(C)c3Cc3ccccc3)cc2)nc1` [IRCBC-269], in test [1] (setting [4]), the EC50 is 0.00168 nM.
